Literature values, collected in patent publication US20240230638A9, “SMALL MOLECULE SCREENING ASSAY FOR DIGITAL MICROFLUIDIC PLATFORM” (NICOYA LIFESCIENCES, INC., priority 2021, published 2024).

Conditions: measure of hydrophobicity, literature values

Row | Compound | octanol-water partitioning coefficients (logKow)
1 | NS(=O)(=O)c1ccccc1 [Benzenesulfonamide] | 0.31
2 | CC(C)/N=c1\cc2n(-c3ccc(Cl)cc3)c3ccccc3nc-2cc1Nc1ccc(Cl)cc1 [Clofazimine] | 6.3
3 | O=C(O)c1ccccc1Nc1cccc(C(F)(F)F)c1 [Flufenamic acid] | 5.19
4 | CC(C)Cc1ccc(C(C)C(=O)O)cc1 (stereo not shown) [Ibuprofen] | 3.97
